Data published in ChEMBL document CHEMBL1268830, “Efficient synthesis and biological evaluation of some 2,4-diamino-furo[2,3-d]pyrimidine derivatives” (Bioorg Med Chem Lett, 2010).

Tests used:
[1] = Cytotoxicity against human sSPC-A1 cells after 48 hrs by MTT assay; assay type: functional, cell-based; details: sSPC-A1, 48 h
A549 = test: Cytotoxicity against human A549 cells after 48 hrs by MTT assay; assay type: functional, cell-based; details: A549, 48 h

## CCOC(=O)c1c(C)oc2nc(Nc3ccccc3)nc(N3CCN(C)CC3)c12
[1]
  IC50: 26.1 µM
A549
  IC50: 0.8 µM

## CCCCNc1nc(Nc2ccccc2)nc2oc(C)c(C(=O)OCC)c12
[1]
  IC50: 50.2 µM
A549
  IC50: 2.7 µM

## CCOC(=O)c1c(C)oc2nc(Nc3ccccc3)nc(NC(C)C)c12
A549
  IC50: 21.5 µM

## CCOC(=O)c1c(C)oc2nc(Nc3ccccc3)nc(NCCO)c12
[1]
  IC50: 24.2 µM
A549
  IC50: 13 µM

## CCOC(=O)c1c(C)oc2nc(Nc3ccccc3)nc(N3CCOCC3)c12
[1]
  IC50: 69 µM
A549
  IC50: 15.2 µM

## CCCCNc1nc(Nc2cccc(C)c2)nc2oc(C)c(C(=O)OCC)c12
A549
  IC50: 9 µM

## CCOC(=O)c1c(C)oc2nc(Nc3cccc(C)c3)nc(N3CCOCC3)c12
[1]
  IC50: 70.8 µM
A549
  IC50: 14 µM

## CCOC(=O)c1c(C)oc2nc(Nc3cccc(C)c3)nc(N3CCN(C)CC3)c12
[1]
  IC50: 18.2 µM
A549
  IC50: 5.5 µM

## CCOC(=O)c1c(C)oc2nc(Nc3cccc(C)c3)nc(N(CC)CC)c12
A549
  IC50: 8.8 µM

## CCOC(=O)c1c(C)oc2nc(Nc3cccc(C)c3)nc(NC(C)C)c12
[1]
  IC50: 46.3 µM
A549
  IC50: 8.6 µM
